Assay [1] deals with soybean. The experiment in a line: Example 2: soybean nodule weight one week after foliar spray. The class given is in vivo. The method, then: (§1) Medium-term fertilizer effect type culture soil (Takii hydrous cell medium-term fertilizer effect type, Takii & Co., Ltd.) and vermiculite grains (Akagi-Engei Co., Ltd.) were mixed at a volume ratio of 1:1, and the soil was placed in a polypot (diameter: 10.5 cm, height: 9 cm). The soybean seeds used were “Enrei” (purchased from Nikko Seed Co. Ltd.). After tap water was supplied in an amount of 250 mL per pot, 2 seeds per pot were each sown at a depth of from about 1 to 2 cm from the soil surface. The number of repeats in each test plot was 6 (n=6).
1.5% agar (Wako Pure Chemical Industries, Ltd.) was added to Yeast-Mannitol (YM) medium (0.5 g of K2HPO4, 0.2 g of MgSO4-7H2O, 0.1 g of NaCl, 0.4 g of yeast extract, 10 g of mannitol, and 1 L of distilled water (pH: 6.8)) to prepare a solid medium, and a soybean Rhizobium (Bradyrhizobium japonicum) NBRC14783T strain was grown on the solid medium. A platinum loop of the grown Rhizobium was taken and inoculated in 50 mL of YM liquid medium in a Sakaguchi flask with a volume of 500 mL, and shake-cultured at 30° C. for about 36 hours. A Rhizobium culture solution whose value of turbidity OD600 of bacterial cells was about 0.3 was prepared. […]
The mean and the standard deviation were calculated from the data of four repeats, excluding the highest and the lowest values from the six repeats in each test plot.

Assay [2] concerns soybean. The experiment in a line: Example 2: soybean nodule activity (ureide in exudate) one week after foliar spray. The class given is in vivo. The method, then: as §1
1.5% agar (Wako Pure Chemical Industries, Ltd.) was added to Yeast-Mannitol (YM) medium (0.5 g of K2HPO4, 0.2 g of MgSO4-7H2O, 0.1 g of NaCl, 0.4 g of yeast extract, 10 g of mannitol, and 1 L of distilled water (pH: 6.8)) to prepare a solid medium, and a soybean Rhizobium (Bradyrhizobium japonicum) NBRC14783T strain was grown on the solid medium. A platinum loop of the grown Rhizobium was taken and inoculated in 50 mL of YM liquid medium in a Sakaguchi flask with a volume of 500 mL, and shake-cultured at 30° C. for about 36 hours. […]
Exudate components contained in the cotton balls were eluted with ultrapure water and filtered using Micro Biospin chromatography column (Bio-Rad Laboratories, Inc.). […] The 1 000-fold diluted filtrate was quantified. […]

The test system of assay [3] is soybean. Briefly: Example 3: soybean nodule activity, mixing ratio of ascorbic acid and antioxidant. The settings on record: ascorbic acid dissolved in tap water, in comparison to no application. The format is in vivo. The method, then: The items of the preparation of soil and sowing, the inoculation of Rhizobium, the exudate collection method for measuring the amount of ureide nitrogen, which serves as an indicator of nodule activity, the experimental operation before quantification of exudate, the equipment and measurement method used for quantification of the amount of ureide nitrogen, and the standard products used and quantification were the same as those in Example 2, and the cultivation of soybean was carried out for 21 days.
The cultivation was carried out in an artificial weather apparatus (LPH-411SP, Nippon Medical & Chemical Instruments Co., Ltd.), with the light condition of a light period (light intensity from […]) of 16 hours/a dark period of 8 hours, the temperature of 30° C. for the light period/25° C. for the dark period, and a humidity of 50%. On day 7 after sowing, the plants were thinned so as to be one plant per pot. Watering was carried out by adding water to a vat placed under the pot so that about 5 cm of the lower part of the pot would be submerged after the vat had run out of water.
The spraying solutions shown in Table 4 below were prepared in the same manner as in Example 2, and 6.7 mL of each was sprayed per plant using a mister an day 14 after sowing. Foliar spray was carried out only once, and 7 types of test plots were examined (Table 4). […]

Assay [4] relates to legume crops. The settings on record: total of three foliar sprays, ascorbic acid solution dissolved in distilled water, vegetative or reproductive growth stage; cited from earlier work.
Setting [5] is: ascorbic acid 1,500 ppm dissolved in deionized water, soybean early growth stage.
Where [6] appears, read: ascorbic acid 1,500 ppm dissolved in tap water.

As to `O=C1O[C@H]([C@@H](O)CO)C(O)=C1O` [ascorbic acid, (R)-3,4-dihydroxy-5-((S)-1,2-dihydroxyethyl)furan-2(5H)-one], the nodule weight entry in assay [1] (setting [5]) was “increased”. In assay [1] (setting [6]), the “application effect of ascorbic acid (nodule weight)” value was “tended to decrease”. Further, the nodule activity result in assay [2] (setting [5]) is recorded as “increased”. Besides, the “application effect of ascorbic acid (nodule activity)” value in assay [2] (setting [6]) is “tended to decrease”. Also, the “nodule activity (allantoin and allantoic acid in exudate)” value in assay [3] is reported as “did not change or rather decreased”. For the same compound, the increase the yield entry in assay [4] was “up to 30%”.

Source of the values: patent publication US20250280826A1, “PLANT GROWTH PROMOTER” (KAO CORPORATION, priority 2022, published 2025).
